From PubChem BioAssay (NCI) come the findings set out here.

Test systems include BT-549 breast; CAKI-1 renal; CCRF-CEM leukemia; EKVX NSCLC; HOP-62 NSCLC; HT29 colon; IGROV1 ovarian; MALME-3M melanoma; MOLT-4 leukemia; NCI-H23 lung; NCI-H522 lung; OVCAR-3 ovarian; PC-3 prostate; RXF 393 renal; SK-MEL-2 melanoma; SNB-75 CNS; TK-10 renal; MDA-MB-435; HOP-92 NSCLC; NCI-H226 lung.
Assay in all cases: DTP human tumour cell line panel, 48 h

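Results reflect a 48-hour exposure of cells in 96-well plates to compound at five concentrations. TGI: concentration producing complete growth inhibition.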

For orientation: TGI means the concentration giving total growth inhibition. On to `COC(=O)c1cc(/C=C/C(=O)Cc2ccccc2)cn1S(=O)(=O)c1ccccc1`, for which the TGI with BT-549 breast, with CAKI-1 renal, in the test on CCRF-CEM leukemia, in the test on EKVX NSCLC, in the test with HOP-62 NSCLC and with HT29 colon was > 100 µM throughout. The TGI with IGROV1 ovarian, in the test with MALME-3M melanoma, in the test with MOLT-4 leukemia, in the test on NCI-H23 lung, in the test on NCI-H522 lung and in the test with OVCAR-3 ovarian was > 100 µM each time. In addition, the TGI in the test on PC-3 prostate, in the test with RXF 393 renal, with SK-MEL-2 melanoma, with SNB-75 CNS and in the test on TK-10 renal was > 100 µM in each case.
As for `COc1ccccc1N1CCN(S(=O)(=O)c2ccc(Cl)cc2)C1=N`, the TGI with BT-549 breast, with CAKI-1 renal, in the test with EKVX NSCLC, with HOP-62 NSCLC, with MDA-MB-435 and with MOLT-4 leukemia was > 100 µM each time. The TGI in the test on NCI-H23 lung, with NCI-H522 lung, in the test on OVCAR-3 ovarian, with PC-3 prostate, in the test on RXF 393 renal and in the test with SK-MEL-2 melanoma was > 100 µM in each case. For the same compound, the TGI in the test on SNB-75 CNS and in the test on TK-10 renal was > 100 µM in each case.
In the case of `CCC1=CC(OCc2ccccc2)C(CCN(Cc2ccccc2)C(=O)OCc2ccccc2)C1` (centres undefined), the TGI in the test on CAKI-1 renal was found to be 28.3 µM; with EKVX NSCLC it was 32.8 µM; in the test on HOP-62 NSCLC it was 37.1 µM; with HOP-92 NSCLC, 27 µM; in the test with HT29 colon it was 37.6 µM; with IGROV1 ovarian it was 29.8 µM. In addition, the TGI with MALME-3M melanoma is 30.1 µM; in the test on MDA-MB-435, 32.7 µM; in the test on MOLT-4 leukemia it was 46.5 µM; in the test with NCI-H226 lung, 36.5 µM; in the test on NCI-H23 lung, 33.4 µM; in the test on NCI-H522 lung, 25.9 µM. In addition, the TGI in the test with OVCAR-3 ovarian stood at 28.4 µM; in the test with PC-3 prostate, 42.9 µM; with RXF 393 renal, 17.7 µM; in the test on SK-MEL-2 melanoma, 42.1 µM; in the test with SNB-75 CNS, 22.6 µM; in the test on TK-10 renal it was 30.9 µM.
Consider `CCC1(c2ccc(OC)c(OC)c2)CCN(S(=O)(=O)c2ccc(C)cc2)C1` (centres undefined), for which the TGI in the test on BT-549 breast, in the test on CAKI-1 renal, with CCRF-CEM leukemia, in the test with EKVX NSCLC, in the test with HOP-62 NSCLC and in the test on HT29 colon was > 100 µM in each case. Besides, the TGI in the test on IGROV1 ovarian was > 100 µM; with MDA-MB-435, > 100 µM; in the test with MOLT-4 leukemia it was 64.1 µM; with NCI-H226 lung, > 100 µM; in the test on NCI-H23 lung, > 100 µM; in the test with NCI-H522 lung, > 100 µM. The TGI in the test with OVCAR-3 ovarian, with PC-3 prostate, in the test with RXF 393 renal, with SK-MEL-2 melanoma, with SNB-75 CNS and in the test on TK-10 renal was > 100 µM throughout.
As to `N#Cc1c(-c2ccccc2)cn(C(=O)c2ccccc2)c1N`, the TGI with CCRF-CEM leukemia, in the test with EKVX NSCLC, with HOP-62 NSCLC, in the test with HOP-92 NSCLC, with HT29 colon and in the test on IGROV1 ovarian was > 100 µM in each case. Further, the TGI with MALME-3M melanoma, in the test on MDA-MB-435, in the test on MOLT-4 leukemia, with NCI-H226 lung, in the test with NCI-H23 lung and in the test on NCI-H522 lung was > 100 µM throughout. Moreover, the TGI with OVCAR-3 ovarian, in the test on PC-3 prostate, with SK-MEL-2 melanoma, with SNB-75 CNS and in the test on TK-10 renal was > 100 µM each time.
For the compound `N#CCCC1(CCC#N)S(=O)(=O)OCCOS1(=O)=O`, the TGI in the test on BT-549 breast, with CAKI-1 renal, in the test on CCRF-CEM leukemia, with EKVX NSCLC, in the test with HOP-62 NSCLC and in the test on HT29 colon was > 100 µM each time. In addition, the TGI in the test with MALME-3M melanoma, in the test with MDA-MB-435, in the test with MOLT-4 leukemia, with NCI-H226 lung, with NCI-H23 lung and in the test with NCI-H522 lung was > 100 µM in each case. The TGI with OVCAR-3 ovarian, in the test on PC-3 prostate, with RXF 393 renal, with SK-MEL-2 melanoma, with SNB-75 CNS and in the test with TK-10 renal was > 100 µM in each case.
Take `COc1ccc(/C=C2/SC(=Nc3ccccc3)N(NC(=O)Cc3ccccc3)C2=O)cc1`: the TGI with BT-549 breast, with CCRF-CEM leukemia, in the test with EKVX NSCLC, in the test with HOP-62 NSCLC, in the test on HOP-92 NSCLC and with HT29 colon was > 100 µM each time. Also, the TGI in the test with IGROV1 ovarian, with MDA-MB-435, in the test with MOLT-4 leukemia, in the test on NCI-H226 lung, in the test with NCI-H23 lung and with OVCAR-3 ovarian was > 100 µM throughout. Also, the TGI in the test on RXF 393 renal, in the test on SK-MEL-2 melanoma, in the test with SNB-75 CNS and in the test on TK-10 renal was > 100 µM each time.
As for `Cc1n[nH]c(=O)n1/N=C/c1ccco1`, the TGI with BT-549 breast, in the test on CAKI-1 renal, in the test on CCRF-CEM leukemia, in the test with EKVX NSCLC, with HOP-62 NSCLC and in the test with HT29 colon was > 100 µM in each case. In addition, the TGI in the test on MALME-3M melanoma, with MDA-MB-435, in the test with MOLT-4 leukemia, with NCI-H226 lung, with NCI-H23 lung and with OVCAR-3 ovarian was > 100 µM in each case. For the same compound, the total growth inhibition concentration (TGI) with PC-3 prostate, with RXF 393 renal, with SK-MEL-2 melanoma and with SNB-75 CNS was > 100 µM in each case.
